Patent US20220281865A1, “DIHYDROPYRIMIDINE DERIVATIVES AND USES THEREOF IN THE TREATMENT OF HBV INFECTION OR OF HBV-INDUCED DISEASES” (Janssen Sciences Ireland Unlimited Company, priority 2019, published 2022)

How the values were obtained:
HBV = test: Anti-HBV activity in HepG2.2.15 cells (HBV DNA in culture medium by qPCR); assay type: cell-based; conditions: Hepatitis B virus, 144 h, 6 days treatment
Protocol: (§1) HepG2.2.15 (the HepG2.2.15 cell line can be produced by transfection of the HepG2 cell line as described in Sells, Chen, and Acs 1987 (Proc. Natl. Acad. Sci. USA 84: 1005-1009), and the HepG2 cell line is available from ATCC® under number HB-8065™)
(§2) HepG2.2.15 cells were plated into 96-well plate in 2% FBS culture medium at the density of 40,000 cells/well and 5,000 cells/well for HBV inhibitory activity and cytotoxicity determination, respectively. After incubation at 37° C., 5% CO2 overnight, cells were treated with medium containing compounds for 6 days with medium and compounds refreshed after 3 days of treatment. Each compound was tested in a 1:3 serial dilutions at 8 different concentrations in triplicate. The highest concentration of the compounds was 10 uM or 1 uM for anti-HBV activity assay and 100 uM for cytotoxicity determination.
The change of HBV DNA level induced by the compounds was assessed by quantitative real-time polymerase chain reaction (qPCR). Briefly, the HBV DNA in the culture medium was extracted using QIAamp 96 DNA Blood Kit according to the manual and then quantified by real-time PCR assay using the primers and probe in the table 1 below.
(§3) EC50 and CC50 values are calculated by the GRAPHPAD PRISM software.

[1] = Cytotoxicity determination in HepG2.2.15 cells (CCK-8 cell viability); assay type: cell-based; conditions: human, 6 days treatment, CCK-8 assay
Protocol: as §1, §2
Cell viability was determined by CCK-8 assay. After 6 days of compounds treatment, 20 μl CCK-8 reagents were added to each well of cytotoxicity assay plates. Cell plates were incubated at 37° C., 5% CO2 for 2.5 h. The absorbance at 450 nm wavelength and the absorbance at 630 nm wavelength as reference was measured.
as §3

Structure (SMILES) | EC50 (HBV) [µM] | CC50 at 6 days [1] [µM]
CCOC(=O)C1=C(CN2CC(F)(F)[C@H]3CCN(CC(C)(C)C(=O)O)C(=O)[C@H]32)NC(c2nccs2)=N[C@H]1c1cccc(F)c1C (single isomer, unassigned) [Compound I-1, 3-((3aS*,7aS*)-1-(((S)-5-(ethoxycarbonyl)-6-(3-fluoro-2-methylphenyl)-2-(thiazol-2-yl)-3,6-dihydropyrimidin-4-yl)methyl)-3,3-difluoro-7-oxohexahydro-1H-pyrrolo[2,3-c]pyridin-6(2H)-yl)-2,2-dimethylpropanoic acid] | 0.06 | 32
CCOC(=O)C1=C(CN2CC(F)(F)[C@H]3CN(CC(C)(C)C(=O)O)CC[C@H]32)NC(c2nccs2)=N[C@H]1c1cccc(F)c1C (single isomer, unassigned) [Compound I-6, 3-((3aS*,7aR*)-1-(((S)-5-(ethoxycarbonyl)-6-(3-fluoro-2-methylphenyl)-2-(thiazol-2-yl)-3,6-dihydropyrimidin-4-yl)methyl)-3,3-difluorohexahydro-1H-pyrrolo[3,2-c]pyridin-5(6H)-yl)-2,2-dimethylpropanoic acid] | 0.081 | 43.4
CCOC(=O)C1=C(CN2CC(F)(F)[C@H]3CCN(C(=O)C(C)(C)C(=O)O)C[C@H]32)NC(c2nccs2)=N[C@H]1c1cccc(F)c1C (single isomer, unassigned) [Compound I-3, 3-((3aS*,7aS*)-1-(((S)-5-(ethoxycarbonyl)-6-(3-fluoro-2-methylphenyl)-2-(thiazol-2-yl)-3,6-dihydropyrimidin-4-yl)methyl)-3,3-difluorohexahydro-1H-pyrrolo[2,3-c]pyridin-6(2H)-yl)-2,2-dimethyl-3-oxopropanoic acid] | 0.21 | 30
CCOC(=O)C1=C(CN2CC(F)(F)[C@H]3CC(=O)N(CC(C)(C)C(=O)O)C[C@H]32)NC(c2nccs2)=N[C@H]1c1cccc(F)c1C (single isomer, unassigned) [Compound I-2, 3-((3aS*,7aS*)-1-(((S)-5-(ethoxycarbonyl)-6-(3-fluoro-2-methylphenyl)-2-(thiazol-2-yl)-3,6-dihydropyrimidin-4-yl)methyl)-3,3-difluoro-5-oxohexahydro-1H-pyrrolo[2,3-c]pyridin-6(2H)-yl)-2,2-dimethylpropanoic acid] | 0.034 | 50.4
CCOC(=O)C1=C(CN2CC(F)(F)[C@H]3CN(C(=O)C(C)(C)C(=O)O)CC[C@H]32)NC(c2nccs2)=N[C@H]1c1cccc(F)c1C [Compound I-4, 3-((cis)-1-(((S)-5-(ethoxycarbonyl)-6-(3-fluoro-2-methylphenyl)-2-(thiazol-2-yl)-3,6-dihydropyrimidin-4-yl)methyl)-3,3-difluorohexahydro-1H-pyrrolo[3,2-c]pyridin-5(6H)-yl)-2,2-dimethyl-3-oxopropanoic acid] | 0.081 | 34.4
CCOC(=O)C1=C(CN2CC(F)(F)[C@H]3C(=O)N(CC(C)(C)C(=O)O)CC[C@H]32)NC(c2nccs2)=N[C@H]1c1cccc(F)c1C (single isomer, unassigned) [Compound I-5, 3-((3aR*,7aR*)-1-(((S)-5-(ethoxycarbonyl)-6-(3-fluoro-2-methylphenyl)-2-(thiazol-2-yl)-3,6-dihydropyrimidin-4-yl)methyl)-3,3-difluoro-4-oxohexahydro-1H-pyrrolo[3,2-c]pyridin-5(6H)-yl)-2,2-dimethylpropanoic acid] | 0.048 | 47.1
